Our source for the Activity, IC50 and inhibition values is ChEMBL document CHEMBL4732079, “Design, synthesis and antitumor evaluation of new 1,8-naphthalimide derivatives targeting nuclear DNA” (Eur J Med Chem, 2021).

Molecules are shown by their SMILES. Active and inactive are the calls of the source. No cut-off for these calls is given here.

For assay [1], the system named is MGC-803. As to the kind of experiment: Induction of cell cycle arrest in human MGC-803 cells assessed as accumulation of cells at G2 phase at 0.5 uM for 24 hrs (reference value: 17.61%). Format: functional.
In assay [2] the test system is MGC-803. As to the kind of experiment: Induction of apoptosis in human MGC-803 cells assessed as necrotic cells at 2 uM after 24 hrs (reference value: 0.9%). Format: functional.
For assay [3], the system named is T-24. Put plainly: Antiproliferative activity against human T-24 cells by MTT assay. Format: functional, cell-based. (In general: Tetrazolium dyes change colour on reduction, which living cells bring about.)
Assay [4] has as its target T1, DNA topoisomerase 1 (Homo sapiens) (UniProt P11387).
T1 sequence (whole entry): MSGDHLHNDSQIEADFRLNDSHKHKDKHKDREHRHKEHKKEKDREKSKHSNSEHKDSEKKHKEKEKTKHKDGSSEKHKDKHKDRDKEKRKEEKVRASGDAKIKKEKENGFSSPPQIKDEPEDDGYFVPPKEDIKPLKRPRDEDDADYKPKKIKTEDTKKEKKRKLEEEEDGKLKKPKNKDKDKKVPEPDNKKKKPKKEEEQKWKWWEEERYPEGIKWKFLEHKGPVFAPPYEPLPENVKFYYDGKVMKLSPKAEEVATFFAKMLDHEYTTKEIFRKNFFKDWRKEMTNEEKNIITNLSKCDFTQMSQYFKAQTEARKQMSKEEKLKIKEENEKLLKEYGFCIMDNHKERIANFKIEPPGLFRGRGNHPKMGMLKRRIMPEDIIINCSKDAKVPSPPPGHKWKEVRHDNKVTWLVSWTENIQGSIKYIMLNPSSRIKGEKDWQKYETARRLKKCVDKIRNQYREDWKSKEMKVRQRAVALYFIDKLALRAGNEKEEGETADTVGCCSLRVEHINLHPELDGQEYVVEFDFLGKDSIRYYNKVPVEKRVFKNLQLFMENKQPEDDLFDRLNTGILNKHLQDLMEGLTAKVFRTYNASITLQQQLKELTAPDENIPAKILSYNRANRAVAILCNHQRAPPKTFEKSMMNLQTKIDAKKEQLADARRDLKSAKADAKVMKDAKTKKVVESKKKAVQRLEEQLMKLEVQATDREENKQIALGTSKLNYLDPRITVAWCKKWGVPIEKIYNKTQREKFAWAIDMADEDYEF
Put plainly: Inhibition of topoisomerase 1 (unknown origin) assessed as DNA relaxation using pBR322 DNA as substrate at < 20 uM by gel electrophoresis. Conditions: dose microM <20.

In assay [5] the target is T1, DNA topoisomerase 1 (Homo sapiens). As to the kind of experiment: Inhibition of topoisomerase 1 (unknown origin) using pBR322 DNA as substrate at 10 uM by gel electrophoresis.
The subject of assay [6] is MGC-803. As to the kind of experiment: Induction of apoptosis in human MGC-803 cells assessed as increase in PARP expression at 0.5 to 1 uM by Western blot analysis. Format: functional, cell-based. Conditions: dose 0.5-1 µM.
Assay [7] deals with T1, DNA topoisomerase 1 (Homo sapiens). As to the kind of experiment: Inhibition of topoisomerase 1 (unknown origin) using pBR322 DNA as substrate at 20 uM by gel electrophoresis.

Take `CN(C)CCN1C(=O)c2cccc3c(N4CCN(C(=O)c5ccccc5)CC4)c([N+](=O)[O-])cc(c23)C1=O`: the results for the Activity in assay [1] and in assay [2] were 3.14% and 5.6%, respectively. Besides, in assay [3], the IC50 came to 420 nM. For the same molecule, the inhibition result in assay [4] and in assay [5] was “Active” in each case. Besides, in assay [6], the outcome was Active.
With `Cc1ccc(S(=O)(=O)N2CCN(c3c([N+](=O)[O-])cc4c5c(cccc35)C(=O)N(CCN(C)C)C4=O)CC2)cc1`, the results for the Activity in assay [1] and in assay [2] were 0.19% and 6.2%, respectively. Further, the inhibition result in assay [7] and in assay [4] was “Active” throughout. In assay [3], the midpoint of inhibition, the IC50, lay at 330 nM. The outcome in assay [6] was Active.

By IC50 is commonly meant the midpoint of a concentration-inhibition curve. A higher IC50 goes with a need for much substance.
